{"source": "patent US20240173347A1", "about": "“COMPOSITIONS FOR RAISING NAD LEVELS AND METHODS AND USES THEREOF” (ACCURI, LLC, priority 2022, published 2024)", "tested_on": "intracellular NAD", "test": "Intracellular NAD levels in users before and after supplementation", "assay_type": "in vivo, human", "conditions": "intravenous infusion, 5 sessions of 750 mg", "data": [{"compound": "NC(=O)c1ccc[n+]([C@@H]2O[C@H](COP(=O)([O-])OP(=O)(O)OC[C@H]3O[C@@H](n4cnc5c(N)ncnc54)[C@H](O)[C@@H]3O)[C@@H](O)[C@H]2O)c1", "note": "[NAD+, Nicotinamide adenine dinucleotide]", "values": [{"measurement": "Effect on intracellular NAD levels", "result": "does not increase"}]}]}
